What was measured:
USP30 [1] = target: T1, USP30 (Homo sapiens, UniProt Q70CQ3); assay: Biotin pulldown (Neutravidin enrichment) and immunoblotting for USP30; assay type: cell-based; settings: HEK293T, 1 h; for extent of USP30 engagement and enrichment: 100 nM probe, pulldown; for probe concentration at which USP30 was enriched (pulldown) / probe concentration of maximal USP30 enrichment (pulldown): biotin pulldown and immunoblotting
T1 construct: We next determined cellular engagement of endogenous USP30 with IMP-2587 or IMP-2586; endogenous in cells; host or cells: HEK293T
T1 sequence (Q70CQ3 1-517): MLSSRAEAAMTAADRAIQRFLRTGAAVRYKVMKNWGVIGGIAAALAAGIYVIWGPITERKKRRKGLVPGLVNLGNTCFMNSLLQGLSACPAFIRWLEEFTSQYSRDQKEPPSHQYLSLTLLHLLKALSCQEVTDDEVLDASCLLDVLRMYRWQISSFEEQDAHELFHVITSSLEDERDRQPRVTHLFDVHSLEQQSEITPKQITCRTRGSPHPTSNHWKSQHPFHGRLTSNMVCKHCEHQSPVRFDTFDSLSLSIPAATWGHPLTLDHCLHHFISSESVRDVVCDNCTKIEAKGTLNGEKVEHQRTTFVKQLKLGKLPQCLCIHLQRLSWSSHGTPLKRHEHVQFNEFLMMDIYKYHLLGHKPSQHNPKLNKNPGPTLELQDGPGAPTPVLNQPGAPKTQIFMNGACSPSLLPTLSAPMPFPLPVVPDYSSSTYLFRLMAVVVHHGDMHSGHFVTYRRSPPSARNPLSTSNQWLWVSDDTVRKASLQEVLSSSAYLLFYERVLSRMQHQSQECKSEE
Procedure: (§1) We next determined cellular engagement of endogenous USP30 with IMP-2587 or IMP-2586. […] In-cell concentration-dependent competition by IMP-2587 and IMP-2586 for USP30 were confirmed below 100 nM probe (Fig. 2b and c), whilst engagement of an exemplar unrelated DUB, UCHL1, occurred only at a much higher concentration (30 000 nM). We hypothesise that incomplete modification of USP30 by HA-Ub-VME is likely due to limited retention of USP30 activity in cell lysates, which have likely had the USP30 transmembrane domain compromised, highlighting the potential utility of a small molecule USP30 ABP applicable directly in intact cells. Direct USP30 target engagement by IMP-2587 and IMP-2586 was confirmed in HEK293T cells following 1 h probe treatment followed by cell lysis and CuAAC bio-orthogonal ligation to capture reagent azido-TAMRA-biotin (AzTB) for IMP-2587 or alkyne-TAMRA-biotin for IMP-2586 (Fig. 3a).[27] […] This unspecific background labelling is presumably due to the previously reported higher off-target CuAAC reactivity of an alkyne-bearing capture reagent, applied here due to incorporation of an azide tag in IMP-2586.[28] Moreover, the labelling of USP30 was further confirmed by biotin pulldown and immunoblotting. […]
(§2) d) Live cell probe incubation, lysate click chemistry and precipitation 6-well HEK293T cells were incubated with media containing compounds ABP 2 and ABP 4 at indicated concentrations for 1 h at 37 °C. The cells were washed with PBS and lysed with lysis buffer (50 μL (1% (v/v) Triton X-100, 0.1% (w/v) sodium dodecyl sulfate (SDS), EDTA-free complete protease inhibitor cocktail (1×, Roche) in PBS on ice for 10 min. The lysates were scraped and transferred to corresponding Lo-Bind Eppendorfs. Each lysate was sonicated for 1 minute, and the samples centrifuges at 5,000 x g at 4 °C for 5 minutes to pellet insoluble cellular debris. The supernatant was collected, and protein concentration was determined using the DC Protein Assay (Bio-Rad) as per manufacturer’s instructions, and normalised to lowest concentrated sample (e.g. 1 mg/mL, using lysis buffer). The following “click mixture” was prepared separately, preparing 6 μL for every 100 μL of […]
(§3) Capture reagent (AzRB/AzT for ABP 2, YnT/YnB for ABP 4 10 mM in DMSO, 1 vol; final concentration […]
CuSO4 (50 mM in water, 2 vol; final concentration in reaction 1 mM)
TCEP (50 mM in water, 2 vol; final concentration in reaction 1 mM)
TBTA (10 mM in DMSO, 1 vol; final concentration in reaction 100 µM)
The click mixture was vortexed and incubated at room temperature for 2 min before 6 μL of the mixture was added to every 100 μL of lysate. The reaction mixtures were shaken at room temperature for 1 h before being quenched with EDTA (500 mM in H2O) to a final concentration of 10 mM.
Proteins were precipitated by adding H2O (1 vol), MeOH (2 vol) and CHCl3 (0.5 vol), vortexing briefly then centrifuging at 17,000 × g for 5 min. The top H2O/MeOH layer was discarded and the middle layer of protein pellet and lower CHCl3 layer retained. The suspension was washed with MeOH (300 μL), and sonicated to break up the pellet. The proteins were pelleted by centrifugation at 10,000–17000 × g for 5–10 min or until a compact pellet was formed. The protein pellet was washed once more with MeOH (1 mL). The pellet was resuspended by sonicating and completely dissolving in 1% (w/v) SDS in PBS (to 5 mg/mL protein) before being made up to 1 mg/mL protein with PBS.
(§4) The lysate samples (10-20 μg) were mixed with 4× Laemmli sample loading buffer (250 mM Tris -HCl pH 6.8, 30% (v/v) glycerol, 10% (w/v) SDS, 0.05% (w/v) bromophenol blue) supplemented with 20% v/v β-mercaptoethanol (BME) and boiled for 10 min at 95 °C. The resulting protein samples were separated according to the protocol in section 3.2.c. Gel were imaged on a Typhoon imager (GE Healthcare; λEx 532 nm, λEm 575 nm for TAMRA. For protein loading quantification, gels were stained with Coomassie blue staining solution overnight, rinsed with water and imaged on an ImageQuant™ […]

UCHL1 = target: T2, UCHL1 (Homo sapiens, UniProt P09936); assay: Cross-screening against unrelated DUB UCHL1; assay type: biochemical; settings: Table S1, ESI
T2 sequence (P09936 1-223): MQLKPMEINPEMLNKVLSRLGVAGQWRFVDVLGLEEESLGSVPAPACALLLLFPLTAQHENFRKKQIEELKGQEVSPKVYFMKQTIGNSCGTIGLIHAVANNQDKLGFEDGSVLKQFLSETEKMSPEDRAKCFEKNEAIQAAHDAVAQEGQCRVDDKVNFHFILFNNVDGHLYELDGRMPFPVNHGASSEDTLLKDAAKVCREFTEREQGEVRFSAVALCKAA

USP30 [2] = target: T1, USP30; assay: Direct target engagement in HEK293T cells: CuAAC ligation and in-gel fluorescence; assay type: cell-based; settings: for probe concentration for detection of USP30 activity in intact cells: following 1 hour incubation
Procedure: as §1, §2, §3
as §4, with “The resulting protein samples were separated according to the protocol in section 3.2.c.” left out

USP30 [3] = settings: following 30 minutes incubation; read-out: reported IC50 against USP30; cited from earlier work
[4] = HEK293T, 1 h probe treatment, CuAAC to AzTB

SMILES	extent of USP30 engagement and enrichment (USP30 [1])	probe concentration at which USP30 was enriched (pulldown) (USP30 [1]) [nM]	probe concentration of maximal USP30 enrichment (pulldown) (USP30 [1]) [nM]	activity against UCHL1 (cross-screening) (UCHL1)	probe concentration for detection of USP30 activity in intact cells (USP30 [2]) [nM]	lowest probe concentration showing major band at ca. 60 kDa (in-gel fluorescence) (USP30 [2]; [4]) [nM]	probe concentration above which additional bands are labelled (in-gel fluorescence) (USP30 [2]; [4])	IC50 (USP30 [3]) [nM]
N#CN1CC[C@@H](NC(=O)c2cc(-c3ccccc3Oc3ccc(N=[N+]=[N-])cc3)n[nH]2)C1 [IMP-2586]	almost complete engagement and enrichment	10	100	no activity	3 to 10			
C#Cc1cccc(-c2cc(NC(=O)CC3CCN(C#N)C3)on2)c1 (centres unmarked) [IMP-2587]	almost complete engagement and enrichment	10	100	no activity	3 to 10	3	above 30 nM	
N#CN1CC[C@H](CC(=O)Nc2cc(-c3cccc(Cl)c3)no2)C1 [compound 1, reference compound]								1 to 10
N#CN1CC[C@@H](NC(=O)c2cc(-c3ccccc3Oc3ccccc3)n[nH]2)C1 [compound 3, reference compound]								1.5

Source: paper PMC11078216, “Discovery of potent and selective activity-based probes (ABPs) for the deubiquitinating enzyme USP30” (RSC Chemical Biology, 2024)
